# Experimental data reported in the supplement of paper PMC8372320.
# Assay: photocatalytic hydrogen evolution rate (per 5 mg catalyst); higher = more photocatalytic H2 evolution; extreme values may be limits of the assay
# Conditions: catalyst mass (mg): 5; Pt cocatalyst (wt%): 3; sacrificial medium: triethylamine/methanol/water 1:1:1
# 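Note: aromatic molecules in triethylamine/methanol/water with Pt photoreduced in situ, irradiated 3 h under a 1 sun AM 1.5G solar simulator (350–1000 nm), H2 quantified by headspace gas chromatography; listed molecule itself used as the photocatalyst at 5 mg per vial.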
row,SMILES,photocatalytic hydrogen evolution rate [µmol/h]
1,O=Cc1ccc(-c2nc(-c3ccc(C=O)cc3)nc(-c3ccc(C=O)cc3)n2)cc1,0.298
2,COc1cc(Br)ccc1C=O,12.3
3,CCOC(=O)c1cncc(C(=O)OCC)c1,0.00607
4,O=Cc1ccc2ncccc2c1,3.11
5,Cc1cc(C)c(Nc2ccc(Nc3c(C)cc(C)cc3C)c3c2C(=O)c2ccccc2C3=O)c(C)c1,0.331
6,N#Cc1ccccc1-c1ccccc1C#N,0
7,Brc1ccc2c(c1)[nH]c1cc(Br)ccc12,0
8,c1ccc(Nc2cc(Nc3ccccc3)cc(Nc3ccccc3)c2)cc1,0
9,N#CC1=C(C#N)SC(C#N)=C(C#N)S1,0
10,O=C1c2ccccc2-c2ccccc21,2.56
11,OC(c1ccccc1)c1ccccc1,0
12,C#Cc1ccc(Br)cc1,0
13,CCN(CCO)c1ccc(N=Nc2ccc([N+](=O)[O-])cc2)cc1,0
14,c1ccc(Nc2ccccc2)cc1,0
15,N[C@@H](Cc1ccccc1)C(=O)O,0.0539
16,COC(=O)c1ccc(C(=O)OC)c(N)c1,0.0112
17,C#Cc1ccc(C#N)cc1,0
18,Fc1c(F)c(Br)c(F)c(F)c1Br,0
19,O=C1c2ccccc2C(=O)C1(O)O,0
20,c1ccc(N(c2ccccc2)c2cc(N(c3ccccc3)c3ccccc3)cc(N(c3ccccc3)c3ccccc3)c2)cc1,0
21,O=Cc1c(O)c(C=O)c(O)c(C=O)c1O,1.03
22,O=Cc1cccc(C(=O)O)c1,1.06
23,O=Cc1cc(C=O)c(O)c(C=O)c1,10.9
24,COC(=O)c1ccc(-c2ccc(Br)cc2)cc1,0.0357

row,SMILES,photocatalytic hydrogen evolution rate [µmol/h]
1,c1ccc(-c2nc(-c3ccccc3)nc(-c3ccccc3)n2)cc1,0.0789
2,Cc1cc(C#N)cnc1Br,0
3,Cc1cc(C#N)ccc1N,0.0133
4,Nc1ccc(-c2nnc(-c3ccc(N)cc3)nn2)cc1,0
5,Cc1cnc(C#N)c(C#N)n1,0
6,N#CCC(=O)c1ccc2c(c1)CCCC2,0
7,N#Cc1c2ccccc2c(C#N)c2ccccc12,0.0714
8,O=C1c2ccccc2C(=O)c2ccccc21,0
9,Cc1cc(C#N)c(C)cc1C#N,0
10,BrCc1ccc(CBr)cc1,0
11,O=C(O)c1ccc(-c2ccc(C(=O)O)cc2)cc1,0.0704
12,N#Cc1cnc(Br)cn1,0.721
13,Brc1nnc(Br)s1,0
14,Nc1ccncc1,0
15,c1cc(-c2nc(-c3ccncc3)nc(-c3ccncc3)n2)ccn1,0
16,COc1ccc(I)cc1,0
17,CCc1cc(C#N)ccc1C#N,0
18,CC(C)(C)c1cc(C=O)cc(C(C)(C)C)c1O,0
19,COc1ccc(N2C(=O)c3ccc4c5ccc6c7c(ccc(c8ccc(c3c48)C2=O)c75)C(=O)N(c2ccc(OC)cc2)C6=O)cc1,0
20,Nc1ccccc1-c1ccccc1,0
21,N#Cc1c(F)c(F)c(F)c(F)c1F,0.0353
22,N#CCc1ccccc1C#N,0
23,Cc1cc(C)cc(-c2cc(C)cc(C)c2)c1,0
24,C#Cc1cc(C(=O)O)cc(C(=O)O)c1,0

row,SMILES,photocatalytic hydrogen evolution rate [µmol/h]
1,N#Cc1ccc(C=O)cn1,0
2,N#Cc1cccnc1C#N,0
3,c1ccc2c(c1)Cc1ccccc1-2,0
4,S=C=Nc1cc(Br)ccc1Br,0
5,N#CCc1ccc(-c2ccc(CC#N)cn2)nc1,0.0108
6,Nc1nnc(Br)cc1Br,0.0148
7,N#Cc1cnccc1Br,0.0501
8,C#Cc1ccc(C(=O)O)cc1,0
9,Brc1ncc(Br)n2ccnc12,0.00675
10,C1=CSC(=C2SC=CS2)S1,0
11,N#Cc1cc(N)ccn1,0
12,Brc1c2c(c(Br)c3nsnc13)N=S=N2,0
13,COc1cc(C=O)cc(OC)c1,5.78
14,O=C1c2ccccc2-c2ccc3c4ccc5c6c(ccc(c7ccc1c2c73)c64)C(=O)c1ccccc1-5,0.407
15,N#Cc1cc(Br)c[nH]c1=O,1.99
16,O=Cc1ccccc1C=O,0.491
17,CC1(C)OB(c2c3ccccc3c(B3OC(C)(C)C(C)(C)O3)c3ccccc23)OC1(C)C,0
18,OB(O)c1cc(Br)cc(Br)c1,0
19,N#Cc1ccc2ccc(C#N)cc2c1,0.0489
20,Cn1cnc(C#N)c1C#N,0.0397
21,CC1(C)c2cc(B3OC(C)(C)C(C)(C)O3)ccc2-c2ccc(B3OC(C)(C)C(C)(C)O3)cc21,0.0142
22,Cc1cc(C#N)ncc1Br,0
23,O=c1c2ccccc2c(=O)c2cc3c(=O)c4ccccc4c(=O)c3cc12,0
24,Nc1ccc(-c2nc(-c3ccc(N)cc3)nc(-c3ccc(N)cc3)n2)cc1,0

row,SMILES,photocatalytic hydrogen evolution rate [µmol/h]
1,C#Cc1cnc[nH]1,0
2,c1ccc2[nH]ccc2c1,0
3,c1ccc2nsnc2c1,0
4,N#CC(C#N)=c1ccc(=C(C#N)C#N)cc1,0
5,Cc1cc(Br)cc(Br)c1,0
6,N#Cc1cscc1C#N,0
7,Nc1ccccc1C(=O)O,0.00138
8,CN1C(=O)c2ccc3c4ccc5c6c(ccc(c7ccc(c2c37)C1=O)c64)C(=O)N(C)C5=O,0
9,N#Cc1ccc(-c2ccc(N)cc2)cc1,0
10,Cc1cc(C=O)cc(C)c1O,0.0076
11,N#CC(C#N)=c1c(F)c(F)c(=C(C#N)C#N)c(F)c1F,0
12,O=C(O)c1ccccc1[N+](=O)[O-],0
13,O=Cc1cccc(C=O)n1,0
14,Brc1cc2cc3sc(Br)cc3cc2s1,0
15,CCc1cc(C)cc(CC)c1Nc1ccc(Nc2c(CC)cc(C)cc2CC)c2c1C(=O)c1ccccc1C2=O,0
16,Nc1cccc2c(N)cccc12,0
17,O=Cc1ccc2nccnc2c1,0
18,c1cc(-c2ccncc2)ccn1,0
19,N#CCc1ccc(B(O)O)cc1,0
20,O=Cc1cccc(-c2ccccn2)c1,2.43
21,O=C1NC(=O)c2ccc3c4ccc5c6c(ccc(c7ccc1c2c73)c64)C(=O)NC5=O,0
